In patent US8507538B2, “Selective heterocyclic sphingosine 1 phosphate receptor modulators” (Receptos, Inc., priority 2009, dated 2013):
pEC50: −log10 of the molar value.

Each compound was assayed against S1P1/EDG1 (Homo sapiens, UniProt P21453) (assay: S1P1 CRE-bla CHOK1 reporter assay (inhibition of Forskolin induced cAMP)). Conditions: agonist activity range, Table 2; read-out: S1P1 ACTIVITY.
Type: cell-based
Excerpt: A mammalian expression plasmid containing S1P1/EDG1 cloned into pcDNA3.1 was purchased from Missouri S&T cDNA Resource Centre. The nucleotide and amino acid sequence of human S1P1/EDG1 are published in Hla and Maciag (J Biol Chem, 265(1990), 9308-9313). S1P1/pcDNA3.1 was transfected into the CRE-bla CHO K1 (Invitrogen) cell line, and stable single cell clones were selected using standard techniques. Expression of functional SIP1/EDG1 receptor was confirmed by cell surface FACS with a S1P1 antibody (R&D Systems, clone 218713) and S1P-mediated inhibition of Forskolin induced cAMP.
Cells were seeded into 384-well black wall/clear bottom plates at 10^4 cells/well/19.5 μl assay media (DMEM-phenol free, 0.5% charcoal/dextran stripped serum, 2 mM glutamine, 0.1 mM NEAA, 1 mM Na-Pyruvate, 25 mM Hepes) and incubated for 18 hrs at 37° C. in 5% CO2. Dose response curves (10-point) were generated in 10 mM Hepes, 0.1% Pluronic F127, in the presence of Forskolin. Cells were treated with 0.5 μl compound in the presence of 2 μM Forskolin for 4 hrs at 37° C. The FRET-based β-lactamase fluorescent substrate (LiveBLAzer™ FRET B/G Loading Kit CC4-AM; Invitrogen) was prepared according to manufacturer's directions, and incubated with cells for 2 hrs at room temperature. Plates were read at Ex:410/Em:458 and Ex:410/Em:522, and the response ratio determined. Data was analyzed by non-linear regression to determine the EC50 for inhibition of Forskolin induced cAMP.

Sequence of S1P1/EDG1 (P21453 whole entry): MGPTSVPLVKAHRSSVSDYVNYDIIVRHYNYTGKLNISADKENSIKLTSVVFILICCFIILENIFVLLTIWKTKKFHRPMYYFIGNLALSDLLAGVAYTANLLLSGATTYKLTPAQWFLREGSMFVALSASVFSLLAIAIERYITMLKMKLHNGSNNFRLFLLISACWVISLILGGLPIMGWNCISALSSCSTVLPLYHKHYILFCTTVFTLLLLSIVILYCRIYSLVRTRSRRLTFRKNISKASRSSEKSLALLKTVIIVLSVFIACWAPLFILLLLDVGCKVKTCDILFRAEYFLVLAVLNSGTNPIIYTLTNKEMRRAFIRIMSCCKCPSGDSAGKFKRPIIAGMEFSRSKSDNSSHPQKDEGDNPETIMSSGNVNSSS

`CC(C)Oc1ccc(-c2ncc(-c3cccc4c3CC[C@@H]4NC(=O)N3CCC(CO)CC3)s2)cc1C#N` [Compound 194] and `CC(C)Oc1ccc(-c2ncc(-c3cccc4c3CC[C@@H]4NC(=O)N3CCC(O)CC3)s2)cc1C#N` [Compound 202] fall in the same range of pEC50: 8.30 to 9.30 for the first, 8.30 to 9.30 for the second.

`CC(C)Oc1ccc(-c2ncc(-c3cccc4c3CC[C@@H]4NS(=O)(=O)CCN3CCC3)s2)cc1C#N` [Compound 128] and `CC(C)Oc1ccc(-c2ncc(-c3cccc4c3CC[C@@H]4NS(=O)(=O)CCN3CCCCC3)s2)cc1C#N` [Compound 139] cannot be ordered by pEC50: less than 8.30 for the first, less than 8.30 for the second.

`CC(C)Oc1ccc(-c2ncc(-c3cccc4c3CC[C@@H]4NS(=O)(=O)CCN3CCC3)s2)cc1C#N` [Compound 127] and `CC(C)Oc1ccc(-c2ncc(-c3cccc4c3CC[C@@H]4NS(=O)(=O)CCN3CC[C@H](O)C3)s2)cc1C#N` [Compound 131] fall in the same range of pEC50: 8.30 to 9.30 for the first, 8.30 to 9.30 for the second.

`CC(C)Oc1ccc(-c2ncc(-c3cccc4c3CCC4N3CC[C@H](N)C3)s2)cc1C#N` (stereo partly drawn) [Compound 211] and `CC(C)Oc1ccc(-c2ncc(-c3cccc4c3CCC4N3CCCCC3)s2)cc1C#N` (stereo not drawn) [Compound 213] fall in the same range of pEC50: 8.30 to 9.30 for the first, 8.30 to 9.30 for the second.

First: CC(C)Oc1ccc(-c2nnc(-c3cccc4c3CC[C@@H]4NC(=O)N3CC(C(=O)O)C3)s2)cc1C#N [Compound 50]
Second: CC(C)Oc1ccc(-c2nnc(-c3cccc4c3CC[C@@H]4NC(=O)N3CC(O)C3)s2)cc1C#N [Compound 64]
The pEC50 of the first is higher: 9.30 to 10.30 for the first, 8.30 to 9.30 for the second. The first is the more potent here.

Compared with `CC(C)Oc1ccc(-c2nnc(-c3cccc4c3CC[C@@H]4NCC(=O)N3CCOCC3)s2)cc1C#N` [Compound 24], `CC(C)Oc1ccc(-c2nnc(-c3cccc4c3CC[C@@H]4NCC(=O)N3CCCC3)s2)cc1C#N` [Compound 39] is higher in pEC50: 8.30 to 9.30 for the first, 9.30 to 10.30 for the second. The second is the more potent here.

Compared with `CC(C)Oc1ccc(-c2nnc(-c3cccc4c3CC[C@@H]4NS(=O)(=O)CC(=O)N(C)C)s2)cc1C#N` [Compound 42, (S)-2-(N-(4-(5-(3-cyano-4-isopropoxyphenyl)-1,3,4-thiadiazol-2-yl)-2,3-dihydro-1H-inden-1-yl)sulfamoyl)-N,N-dimethylacetamide], `CC(C)Oc1ccc(-c2nnc(-c3cccc4c3CC[C@@H]4NC(=O)N(C)C)s2)cc1C#N` [Compound 67] is lower in pEC50: 9.30 to 10.30 for the first, 8.30 to 9.30 for the second.

First: CC(C)Oc1ccc(-c2nnc(-c3cccc4c3CC[C@@H]4NC(=O)CO)s2)cc1C#N [Compound 7, (S)-N-(4-(5-(3-cyano-4-isopropoxyphenyl)-1,3,4-thiadiazol-2-yl)-2,3-dihydro-1H-inden-1-yl)-2-hydroxyacetamide]
Second: CC(C)Oc1ccc(-c2nnc(-c3cccc4c3CC[C@@H]4NC(=O)N3CC[C@H](O)C3)s2)cc1C#N [Compound 55]
The pEC50 of the first is higher: greater than 10.30 for the first, 8.30 to 9.30 for the second.

First: CC(C)Oc1ccc(-c2ncc(-c3cccc4c3CC[C@@H]4NC(=O)N3CC[C@H](N)C3)s2)cc1C#N [Compound 179]
Second: CC(C)Oc1ccc(-c2ncc(-c3cccc4c3CC[C@@H]4NC(=O)N3CC[C@@H](N)C3)s2)cc1C#N [Compound 178]
The pEC50 of the first is lower: 8.30 to 9.30 for the first, 9.30 to 10.30 for the second. The second is the more potent here.

First: CC(C)Oc1ccc(-c2ncc(-c3cccc4c3CCC4NC3CCCCC3)s2)cc1C#N (stereo not drawn) [Compound 218]
Second: CC(C)Oc1ccc(-c2ncc(-c3cccc4c3CC[C@@H]4NCC(=O)N3CCCC3)s2)cc1C#N [Compound 100]
The pEC50 of the first is lower: less than 8.30 for the first, 9.30 to 10.30 for the second.

`CC(C)Oc1ccc(-c2ncc(-c3cccc4c3CC[C@@H]4NS(=O)(=O)CCN3CCC(N(C)C)CC3)s2)cc1C#N` [Compound 153] and `CC(C)Oc1ccc(-c2ncc(-c3cccc4c3CC[C@@H]4NC(=O)N3CC[C@H](N(C)C)C3)s2)cc1C#N` [Compound 184] cannot be ordered by pEC50: less than 8.30 for the first, less than 8.30 for the second.

First: COCC(=O)N[C@H]1CCc2c(-c3cnc(-c4ccc(OC(C)C)c(C#N)c4)s3)cccc21 [Compound 76, (S)-N-(4-(2-(3-cyano-4-isopropoxyphenyl)thiazol-5-yl)-2,3-dihydro-1H-inden-1-yl)-2-methoxyacetamide]
Second: CC(C)Oc1ccc(-c2csc(-c3cccc4c3CCC4O)c2)cc1C#N (stereo not drawn) [Compound 227, 5-(5-(1-hydroxy-2,3-dihydro-1H-inden-4-yl)thiophen-3-yl)-2-isopropoxybenzonitrile]
The pEC50 of the first is higher: 8.30 to 9.30 for the first, less than 8.30 for the second. The first is the more potent here.
